Data: patent US20230219951A1, “PYRIDINE-PYRIMIDINE DERIVATIVE, PREPARATION METHOD THEREFOR AND PHARMACEUTICAL USE THEREOF” (Jiangsu Hengrui Pharmaceuticals Co., Ltd., priority 2020, published 2023)

Tests used:
[1] = Pharmacokinetic evaluation in mice; type: in vivo; conditions: female, mouse, plasma, po, C57 mice, intragastric administration, 2 mg/kg
Description: The drug concentration in the plasma of the test animals (mice) at different time points after intragastric administration (i.g.) of compound 18-p1 was determined by using an LC/MS/MS method. The pharmacokinetic behavior of the compound of the present disclosure in mice was studied and its pharmacokinetic profile was evaluated.
Nine C57 mice, female, purchased from Beijing Vital River Laboratory Animal Technology Co., Ltd., with animal production license number of SOCK (Shanghai) 2017-0005.
An amount of compound 18-p1 was weighed, dissolved with 5% by volume of DMSO and 5% tween 80 (Shanghai Titan Scientific Co., Ltd.), and then prepared into a 0.1 mg/mL clear solution with 90% normal saline.
Intragastric administration: the mice were intragastrically administered at a dose of 2.0 mg/kg and a volume of 20.0 mL/kg.
The compound 18-p1 was administered intragastrically to mice, and 0.1 mL of blood was collected from the orbit before administration and 0.25 h, 0.5 h, 1.0 h, 2.0 h, 4.0 h, 6.0 h, 8.0 h, 11.0 h and 24.0 h after administration. The blood was placed in an EDTA-K2 anticoagulation tube and centrifuged at 10,000 rpm for 1 min (4° C.), and plasma was separated out within 1 h and then stored at −20° C. for testing. The process from blood sampling to centrifugation was performed under an ice bath.
The content of the test compounds at different concentrations in plasma of mice after administration was determined: 10 μL of plasma of mice at each time point after administration was taken, and 200 μL of methanol (containing an internal standard solution camptothecin, 100 ng/mL) was added; the mixture was vortexed for 1 min, and centrifuged for 10 min (18,000 r/min). 3 μL of supernatant was taken from the plasma sample for LC/MS/MS analysis.

[2] = biological target: T1, interaction between the KRAS protein subtype G12D and the SOS1 protein (Homo sapiens, UniProt Q07889); test: Inhibition of the interaction between KRAS G12D and SOS1 protein (AlphaLISA/AlphaScreen); type: binding; conditions: KRAS G12D + GST-TEV-SOS1(564-1049) + GDP
T1 construct: GST-TEV-SOS1(564-1049) (Viva Biotech, SOS1-191010); purchased SOS1: Viva Biotech; KRAS: Shanghai Panchao Biotechnology Co., Ltd. SOS1-191010
T1 sequence (Q07889 564-1049): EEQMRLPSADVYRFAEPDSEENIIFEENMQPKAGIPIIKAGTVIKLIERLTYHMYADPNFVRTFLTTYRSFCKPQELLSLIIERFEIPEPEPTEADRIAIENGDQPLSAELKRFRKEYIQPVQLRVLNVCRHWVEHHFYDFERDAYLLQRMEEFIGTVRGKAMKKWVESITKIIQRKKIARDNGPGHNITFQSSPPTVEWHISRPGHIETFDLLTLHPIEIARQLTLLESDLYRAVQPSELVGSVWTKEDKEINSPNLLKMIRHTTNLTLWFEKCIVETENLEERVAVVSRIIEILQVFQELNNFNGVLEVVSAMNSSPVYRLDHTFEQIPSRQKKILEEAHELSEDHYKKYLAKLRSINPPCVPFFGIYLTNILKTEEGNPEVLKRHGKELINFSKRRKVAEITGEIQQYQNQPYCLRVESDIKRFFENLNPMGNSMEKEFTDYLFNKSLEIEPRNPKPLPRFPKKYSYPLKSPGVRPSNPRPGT
Outline: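 Biotinylated KRAS G12D or G12V preincubated with SOS1 and GDP, then with compound (10-point 5-fold series from 40 μM) for 30 min at room temperature in PBS, 0.1% BSA, 0.05% Tween 20. Glutathione acceptor/streptavidin donor beads added for 60 min; Alpha signal read and IC50 calculated.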

Cc1nc(N[C@H](C)c2cccc(C(F)F)c2F)c2cc([C@]3(O)CC[C@@H](O)CC3)c(=O)[nH]c2n1 [Example 18-p1, 4-(((R)-1-(3-(difluoromethyl)-2-fluorophenyl)ethyl)amino)-6-((1s,4S)-1,4-dihydroxycyclohexyl)-2-methylpyrido[2,3-d]pyrimidin-7(8H)-one]
Vd/F ([1]; read-out: Apparent distribution volume Vz/F): 23.4 L/kg
AUC(0-t) ([1]; read-out: Area under curve AUC0-t): 146 ng·h/mL
CL/F ([1]; read-out: Clearance CLz/F): 225 mL/min/kg
half-life ([1]; read-out: Half-life T½ (converted)): 1.2 h
Cmax ([1]; read-out: Plasma concentration Cmax): 56.7 ng/mL
IC50 [2]: 20 nM
